Patent publication US20130287721A1, “METHOD FOR COUNTERACTING AMMONIA MALODOR” (Firmenich SA, priority 2010, published 2013)

Test system: ammonia lateralization threshold
Test: Panel evaluation of the lateralization threshold (LT) of ammonia alone and in combination with a PRM
Type: in vivo, panellists
Parameters: LT of ammonia Panellist 1 Cond II / LT of ammonia Panellist 2 Cond II / LT of ammonia Panellist 3 Cond II: unit not given here
Procedure: An ammonia stimulus test range was prepared. To ensure a stable level of ammonia in each stimulus, the ammonia headspace was stabilized by combining appropriate concentrations of NH4Cl, NaOH and H2O instead of simply adding ammonia directly to a solvent. Different concentrations of ammonia were used to create a stimulus test range by utilizing the appropriate amount of each compound (see Table 1).
A stimulus was also prepared for each PRM which was intended to be combined with ammonia stimuli. As the PRMs differed in their potency and to ensure that each PRM stimulus had approximately the same potency, an abbreviated dose response curve was constructed for each PRM by having four panellists evaluate the intensity of five concentration levels of the PRM dissolved in propylene glycol in duplicate. Assessments were made relative to the reference of 170 ppm allyl heptanoate in propylene glycol, which intensity was set to 0. Based upon the average scores, a rough intensity match was made for each PRM utilizing one of the following criteria. If one of the tested concentration levels averaged at or near zero, this concentration level was selected. If the rating created any sort of reasonable curve, the equation of the curve was determined and solved for 0 to arrive at the PRM assessment level. If multiple concentration levels were equally distant form the match level, then the standard deviation across individuals was considered, as were the individual responses. In general, the PRM level was selected to be on average close to 0 with low variability, with two panellists saying the level was a bit too high and the other two panellists saying the level was a bit too low. The PRMs for which a stimulus was prepared are listed in Table 2 below, together with the concentration of the PRM in the stimulus.
Volunteers were screened for their ability to lateralize ammonia stimuli. For the screening, the experimenter measured the participant's lateralization threshold for ammonia using a two-alternative forced choice modified staircase procedure employing a four-in, two-down, one-up rule with a five reversal criterion, as described below, On each trial volunteers were presented with a pair of glass bottles with clean, custom-made nose pieces. One bottle contained ammonia at a particular level selected from Table 1 and the other bottle contained water only. Each bottle was applied to one nostril using the nose piece. The volunteers were asked to identify which bottle in each pair contained ammonia.
If the ammonia stimulus was correctly identified in four consecutive trials, the concentration was decreased by one level of Table 1 on the next trial. If an incorrect answer was provided, the concentration was increased by one level of Table 1. Location (left or right nostril) of the stimulus was randomized over presentations. Testing continued until one of the following occurred: • 1) Five reversals (correct decision followed by an incorrect decision or vice versa) were achieved; • 2) The volunteer gave a correct response twice in a row at the lowest level of Table 1; or • 3) The volunteer gave an incorrect response at the highest level of Table 1.
In the first circumstance, threshold values were then calculated by averaging the last four reversals. In the second circumstance, the LT was the lowest level. In the third circumstance, the LT could not be calculated. Volunteers were considered qualified to participate in the panel evaluation if their LT could be calculated (Circumstance 1).
The LT of ammonia, both alone and in combination with diverse PRM, was determined. A repeated-measures design was used, such that the LT with and without the addition of a PRM were both measured at the same time in one person by utilizing interwoven stimuli presentations. The LT for each PRM was measured by two to three panellists, the third panellists being included if the results of the first to panellists disagreed. […]

[1] = Table 4, ammonia stimulus combined with PRM stimulus
[2] = Table 4, change of ammonia LT, Cond II (with PRM) vs Cond I (ammonia alone)
[3] = Table 3, ammonia stimulus combined with PRM stimulus (concentration of Table 2 in propylene glycol)
[4] = Table 3, change of ammonia LT, Cond II (with PRM) vs Cond I (ammonia alone)

Row | Compound | LT of ammonia Panellist 1 Cond II [1] | LT of ammonia Panellist 2 Cond II [1] | LT of ammonia Panellist 3 Cond II [1] | LT of ammonia Panellist 1 %Δ [2] [%] | LT of ammonia Panellist 2 %Δ [2] [%] | LT of ammonia Panellist 3 %Δ [2] [%] | Ammonia LT Panellist 1 Cond II [3] [ppm] | Ammonia LT Panellist 2 Cond II [3] [ppm] | Ammonia LT Panellist 3 Cond II [3] [ppm] | Ammonia LT Panellist 1 % Δ [4] [%] | Ammonia LT Panellist 2 % Δ [4] [%] | Ammonia LT Panellist 3 % Δ [4] [%]
1 | CC(C)[C@H]1CC[C@@H](CO)CC1 [Mayol ®, cis-7-P-menthanol] | 0.6 | 3.5 | 3.5 | 800 | 212 | 212 |  |  |  |  |  | 
2 | Cedrenol |  |  |  |  |  |  | 2.3 | 60 | 2.3 | −68 | 162 | −96
